Literature values as cited in patent US20030198685A1 (priority 2002, published 2003).
Read-outs that look alike come from different tables or passages of the source.

Assays:
[1] = after supplementation
[2] = female rats, constant infusion
[3] = not given; remark: listed apart in the source
[4] = Caucasian group of hypogonadal men
[5] = tested on: prostate and seminal vesicle weights; levator ani muscles
[6] = 300 mg/wk for six weeks
[7] = pharmacological doses, HIV-infected men
[8] = not given; remark: listed apart in the source
[9] = nandrolone use
[10] = patients on dialysis
androgen receptor = conditions: seminal vesicle; parent versus 5-alpha-reduced metabolite

C[C@]12CC[C@H]3[C@@H](CCC4=C[C@@H](O)CC[C@@]43C)[C@@H]1CC[C@@H]2O [4-androstenediol]
human serum testosterone levels (human): elevations
urine testosterone concentration relative to 4-androstenedione [1]: 10 fold

C[C@]12CCC(=O)C=C1CC[C@@H]1[C@@H]2CC[C@]2(C)C(=O)CC[C@@H]12 [4-androstenedione]
serum testosterone (supplementation): elevations

C[C@]12CC[C@H]3[C@@H](CC=C4C[C@@H](O)CC[C@@]43C)[C@@H]1CC[C@@H]2O [5-androstenediol]
proportion of protein in the body composition [2]: increased

C[C@]12CC[C@H](O)CC1=CC[C@@H]1[C@@H]2CC[C@]2(C)C(=O)CC[C@@H]12 [DHEA, dehydro-epiandrosterone]
plasma testosterone ([3]; 50 mg dose of DHEA): levels similar to those observed in young women
increase of plasma delta 4-androstenedione ([3]; 50 mg or 200 mg DHEA): significant and dose dependent
plasma estrogens, particularly estradiol ([3]; 50 mg or 200 mg DHEA): significant and dose dependent increase
plasma testosterone ([3]; 200 mg dose of DHEA): slightly below the levels observed in normal men
increase of plasma dihydrotestosterone levels ([3]; both doses of DHEA): small

C[C@@H]1CC2=CC(=O)CC[C@@H]2[C@H]2CC[C@]3(C)[C@@H](O)CC[C@H]3[C@@H]21 [MENT, 7α-methyl-19-nor-testosterone]
sexual interest and activity, spontaneous erection [4]: significant increases
androgenic potency relative to testosterone ([5]; measured by prostate and seminal vesicle weights): four- to five-times
anabolic potency relative to testosterone ([5]; measured in the levator ani muscles): ten-times

CCCCCCC(=O)O[C@H]1CC[C@H]2[C@@H]3CCC4=CC(=O)CC[C@]4(C)[C@H]3CC[C@]12C [TE, testosterone enanthate]
sexual interest and activity, spontaneous erection [4]: significant increases
body circumferences with significant increases (of fifteen) [6]: shoulders

CCCCCCCCCC(=O)O[C@H]1CC[C@H]2[C@@H]3CCC4=CC(=O)CC[C@@H]4[C@H]3CC[C@]12C [nandrolone decanoate, 19-nor-testosterone decanoate]
total weight, lean body mass, body cell mass, muscle size and strength [7]: significant gains
body circumferences with significant increases (of fifteen) [6]: shoulders and chest

C[C@]12CC[C@H]3[C@@H](CCC4=CC(=O)CC[C@@H]43)[C@@H]1CC[C@@H]2O [nandrolone, 19-nor-testosterone]
decrease in HDL-cholesterol ([8]; body builders): 25-27%
lean body mass ([8]; body builders ingesting nandrolone): Superior increases
effect on sperm [9]: azoospermia
lean body mass compared with placebo [10]: increased significantly
energy expenditure [2]: increased

C[C@]12CC[C@H]3[C@@H](CCC4=CC(=O)CC[C@@]43C)[C@@H]1CC[C@@H]2O [testosterone]
change of affinity to the androgen receptor on 5-alpha-reduction (androgen receptor): increasing by seven- to eight-fold
proportion of protein in the body composition [2]: increased
